Patent US11331299B2, “Medicinal use of serrulatane diterpenes” (The University of Sydney, priority 2016, dated 2022)
Where two headings read alike, the source gives them in different places.

How the values were obtained:
HCT-8 = experiment: OncoPanel cell proliferation assay (10-day); format: cell-based, human; conditions: for EC50 / GI50 / IC50: Homo sapiens, HCT-8, Colon; for EC50: read-out: Cell Count EC50; for GI50: read-out: Cell Count GI50; for IC50: read-out: Cell Count IC50
CYP3A = CYP3A (Homo sapiens, UniProt P08684); experiment: Cytochrome P450 Inhibition (CYP panel); format: in vitro ADME; conditions: probe testosterone; for inhibition at 1 µM: human liver microsomes; for inhibition at 10 µM: liver microsomes
KG-1 leukemia cell line = experiment: OncoPanel cell proliferation assay (10-day); format: cell-based; conditions: Homo sapiens; for EC50: read-out: Cell Count EC50; for IC50: read-out: Cell Count IC50
[1] = test system: HUVEC endothelium cells (normal cell line); experiment: In vitro cell viability assay (intracellular ATP, 72 hour); format: cell-based; conditions: 10 μM; for % Cell growth: HUVEC, Endothelium (Normal)
BRD4(2) (h) bromodomain = biological target: T1, BRD4(2) (h) bromodomain (Homo sapiens, UniProt O60885); experiment: Epigenetic binding assay, Bromodomain; conditions: for inhibition at 10 µM: read-out: % Inhibition of Control Specific Binding
T1 construct: Bromodomain

BRD3(2) (h) bromodomain = biological target: T2, BRD3(2) (h) bromodomain (Homo sapiens, UniProt Q15059); experiment: Epigenetic binding assay, Bromodomain; conditions: 10 μM; read-out: % Inhibition of Control Specific Binding
T2 construct: Bromodomain

CECR2 (h) bromodomain = biological target: T3, CECR2 (h) bromodomain (Homo sapiens, UniProt Q9BXF3); experiment: Epigenetic binding assay, Bromodomain; conditions: for inhibition at 10 µM: read-out: % Inhibition of Control Specific Binding
T3 construct: CECR2(h) bromodomain

[2] = biological target: T4, Nicotinamide N-methyltransferase (h) (Homo sapiens, UniProt P40261); experiment: Epigenetic enzyme assay, Small molecule methyltransferases; format: biochemical; conditions: read-out: % Inhibition of Control Values
T4 sequence (P40261 1-264): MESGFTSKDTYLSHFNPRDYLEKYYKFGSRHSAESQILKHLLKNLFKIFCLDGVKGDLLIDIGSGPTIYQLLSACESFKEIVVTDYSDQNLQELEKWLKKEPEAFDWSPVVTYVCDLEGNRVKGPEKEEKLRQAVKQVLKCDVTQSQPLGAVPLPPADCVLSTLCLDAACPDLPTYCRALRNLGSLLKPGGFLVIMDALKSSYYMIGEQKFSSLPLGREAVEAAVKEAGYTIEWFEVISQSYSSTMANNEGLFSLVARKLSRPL

[3] = biological target: EZH2/EED/SUZ12 (h) (PRC2 complex) (Homo sapiens, UniProt Q15910); experiment: Epigenetic enzyme assay, Methyltransferases (MTs); format: biochemical; conditions: read-out: % Inhibition of Control Values
EP300 (h) bromodomain = biological target: T5, EP300 (h) bromodomain (Homo sapiens, UniProt Q09472); experiment: Epigenetic binding assay, Bromodomain; conditions: for inhibition at 10 µM: read-out: % Inhibition of Control Specific Binding
T5 construct: Bromodomain
T5 sequence (Q09472 1049-1156 limits assumed): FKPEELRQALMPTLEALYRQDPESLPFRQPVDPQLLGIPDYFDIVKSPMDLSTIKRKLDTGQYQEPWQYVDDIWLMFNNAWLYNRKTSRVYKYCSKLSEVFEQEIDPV

CBX2 (h) chromodomain = biological target: T6, CBX2 (h) chromodomain (Homo sapiens, UniProt Q14781); experiment: Epigenetic binding assay, Chromodomain; conditions: read-out: % Inhibition of Control Specific Binding
T6 construct: Recognition and specificity determinants of the human cbx chromodomains; Eurofins CEREP (France), contract laboratory
T6 sequence (Q14781 12-70 limits assumed): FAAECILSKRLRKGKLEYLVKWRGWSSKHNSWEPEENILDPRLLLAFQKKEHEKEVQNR

Chemokine CCR2B = biological target: T7, Chemokine CCR2B (Homo sapiens, UniProt P41597); experiment: Chemokine CCR2B radio ligand binding; conditions: assay year 2015, read-out: % Control Response
T7 construct: expressed in transfected cells; host or cells: CHO-K1 cells
T7 sequence (P41597 1-360 isoform P41597-2): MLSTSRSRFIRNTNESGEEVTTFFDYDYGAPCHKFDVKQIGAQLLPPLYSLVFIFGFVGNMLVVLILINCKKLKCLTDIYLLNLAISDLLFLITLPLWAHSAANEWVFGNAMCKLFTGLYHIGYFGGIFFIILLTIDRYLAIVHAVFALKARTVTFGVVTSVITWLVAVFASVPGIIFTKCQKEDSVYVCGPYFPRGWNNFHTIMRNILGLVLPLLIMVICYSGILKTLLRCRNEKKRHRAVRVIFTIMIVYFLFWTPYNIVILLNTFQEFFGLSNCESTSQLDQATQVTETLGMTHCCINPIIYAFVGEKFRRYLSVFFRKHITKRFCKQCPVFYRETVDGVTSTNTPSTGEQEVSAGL
Procedure: (§1) The in vitro pharmacological studies were conducted by Eurofins PanLab (Taiwan) using the parameters shown in Table 13 with respect to appropriate literature references.

Monoamine Oxidase MAO-B = biological target: T8, Monoamine Oxidase MAO-B (Homo sapiens, UniProt P27338); experiment: Monoamine Oxidase MAO-B; format: biochemical; conditions: for remaining activity at 10 µM: assay year 2015, read-out: % Control Response
T8 construct: host or cells: Insect Hi5 cells
T8 sequence (P27338 1-520): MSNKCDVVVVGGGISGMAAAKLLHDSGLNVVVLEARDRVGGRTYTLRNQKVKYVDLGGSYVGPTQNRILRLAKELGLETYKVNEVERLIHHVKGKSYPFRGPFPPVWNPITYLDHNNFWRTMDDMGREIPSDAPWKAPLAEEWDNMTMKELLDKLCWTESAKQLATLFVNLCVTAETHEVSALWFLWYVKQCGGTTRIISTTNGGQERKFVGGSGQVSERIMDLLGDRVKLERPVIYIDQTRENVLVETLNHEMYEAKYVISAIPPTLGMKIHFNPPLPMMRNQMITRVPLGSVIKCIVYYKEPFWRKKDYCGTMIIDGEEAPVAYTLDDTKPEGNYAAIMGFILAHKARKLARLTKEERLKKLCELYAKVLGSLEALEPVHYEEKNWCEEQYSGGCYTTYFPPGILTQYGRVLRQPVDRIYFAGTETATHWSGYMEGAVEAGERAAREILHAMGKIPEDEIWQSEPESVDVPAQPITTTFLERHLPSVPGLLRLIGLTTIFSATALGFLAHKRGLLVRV
Procedure: as §1

[4] = CYP3A (testosterone sub.), Human liver microsomes, read-out: % Inhibition of Control Values
[5] = KG-1, Leukemia, read-out: Cell Count GI50
[6] = Table 9, inhibition/concentration-response curve

EZH2/EED/SUZ12 (h) (PRC2 complex), sequence (Q15910 whole entry): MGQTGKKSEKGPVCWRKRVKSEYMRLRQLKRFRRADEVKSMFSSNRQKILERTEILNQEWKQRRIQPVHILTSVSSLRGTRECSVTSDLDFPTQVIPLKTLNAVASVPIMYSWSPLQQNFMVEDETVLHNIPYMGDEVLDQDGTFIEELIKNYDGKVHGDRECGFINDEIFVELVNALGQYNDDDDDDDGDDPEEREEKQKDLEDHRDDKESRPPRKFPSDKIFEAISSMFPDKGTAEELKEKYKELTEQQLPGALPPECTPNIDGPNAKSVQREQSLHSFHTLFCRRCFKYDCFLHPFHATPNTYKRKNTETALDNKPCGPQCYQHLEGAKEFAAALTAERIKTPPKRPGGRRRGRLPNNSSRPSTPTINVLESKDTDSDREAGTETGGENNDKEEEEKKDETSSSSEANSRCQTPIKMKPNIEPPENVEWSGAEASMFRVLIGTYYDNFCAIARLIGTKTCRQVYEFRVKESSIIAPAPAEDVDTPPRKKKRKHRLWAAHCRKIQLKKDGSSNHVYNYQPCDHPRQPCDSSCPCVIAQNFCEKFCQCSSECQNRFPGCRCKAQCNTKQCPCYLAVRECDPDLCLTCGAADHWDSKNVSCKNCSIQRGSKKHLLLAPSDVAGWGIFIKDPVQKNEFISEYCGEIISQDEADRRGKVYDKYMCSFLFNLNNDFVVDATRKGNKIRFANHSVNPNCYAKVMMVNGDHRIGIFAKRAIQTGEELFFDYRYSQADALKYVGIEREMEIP
EZH2/EED/SUZ12 (h) (PRC2 complex), sequence (O75530 whole entry partner): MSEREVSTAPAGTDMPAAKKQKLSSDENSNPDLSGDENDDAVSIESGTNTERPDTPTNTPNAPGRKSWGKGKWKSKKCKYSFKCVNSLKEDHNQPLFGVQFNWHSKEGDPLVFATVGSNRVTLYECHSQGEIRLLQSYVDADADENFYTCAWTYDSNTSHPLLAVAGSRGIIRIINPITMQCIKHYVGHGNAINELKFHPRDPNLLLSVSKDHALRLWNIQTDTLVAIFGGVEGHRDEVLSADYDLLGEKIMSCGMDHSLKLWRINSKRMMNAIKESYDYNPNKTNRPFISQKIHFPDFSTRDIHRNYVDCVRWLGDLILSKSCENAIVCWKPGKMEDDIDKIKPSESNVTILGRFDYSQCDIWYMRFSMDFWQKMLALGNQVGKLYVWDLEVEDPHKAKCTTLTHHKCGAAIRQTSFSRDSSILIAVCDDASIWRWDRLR
EZH2/EED/SUZ12 (h) (PRC2 complex), sequence (Q15022 whole entry partner): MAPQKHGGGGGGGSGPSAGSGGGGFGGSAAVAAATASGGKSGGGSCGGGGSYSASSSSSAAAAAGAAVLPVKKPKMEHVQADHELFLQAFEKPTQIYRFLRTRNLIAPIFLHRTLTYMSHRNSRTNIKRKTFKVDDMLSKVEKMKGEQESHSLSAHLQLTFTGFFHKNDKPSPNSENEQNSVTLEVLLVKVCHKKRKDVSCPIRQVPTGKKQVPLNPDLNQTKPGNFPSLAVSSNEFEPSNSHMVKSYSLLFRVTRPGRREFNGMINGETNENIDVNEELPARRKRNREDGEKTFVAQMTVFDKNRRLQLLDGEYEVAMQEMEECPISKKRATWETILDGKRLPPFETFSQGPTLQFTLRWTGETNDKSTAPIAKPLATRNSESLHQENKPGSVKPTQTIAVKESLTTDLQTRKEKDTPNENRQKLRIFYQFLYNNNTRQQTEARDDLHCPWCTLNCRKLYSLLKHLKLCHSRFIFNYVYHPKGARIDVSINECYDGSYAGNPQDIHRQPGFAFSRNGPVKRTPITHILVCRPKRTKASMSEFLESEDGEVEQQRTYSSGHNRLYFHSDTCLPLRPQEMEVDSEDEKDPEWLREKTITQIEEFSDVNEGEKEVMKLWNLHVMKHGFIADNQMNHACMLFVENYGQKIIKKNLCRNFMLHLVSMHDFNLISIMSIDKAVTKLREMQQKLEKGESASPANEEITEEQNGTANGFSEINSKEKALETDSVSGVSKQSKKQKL
CYP3A, sequence (P08684 2-503): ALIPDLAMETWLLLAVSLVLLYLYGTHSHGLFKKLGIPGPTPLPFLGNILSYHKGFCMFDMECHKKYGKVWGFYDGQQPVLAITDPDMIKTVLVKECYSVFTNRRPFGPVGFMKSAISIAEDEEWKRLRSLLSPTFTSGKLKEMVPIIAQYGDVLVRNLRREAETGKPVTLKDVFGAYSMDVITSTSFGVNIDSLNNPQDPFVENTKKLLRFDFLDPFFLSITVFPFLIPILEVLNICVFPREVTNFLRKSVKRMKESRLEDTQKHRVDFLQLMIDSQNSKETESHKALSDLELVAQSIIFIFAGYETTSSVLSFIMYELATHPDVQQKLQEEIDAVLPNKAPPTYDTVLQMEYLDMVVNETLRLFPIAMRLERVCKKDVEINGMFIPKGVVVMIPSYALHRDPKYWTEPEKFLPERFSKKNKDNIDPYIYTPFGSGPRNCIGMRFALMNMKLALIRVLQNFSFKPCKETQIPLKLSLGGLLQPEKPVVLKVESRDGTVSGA
T3 sequence (Q9BXF3 434-538 limits assumed): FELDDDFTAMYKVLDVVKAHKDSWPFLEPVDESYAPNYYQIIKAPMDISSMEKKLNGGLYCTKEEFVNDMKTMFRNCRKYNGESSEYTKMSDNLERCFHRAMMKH
T2 sequence (Q15059 306-415 limits assumed): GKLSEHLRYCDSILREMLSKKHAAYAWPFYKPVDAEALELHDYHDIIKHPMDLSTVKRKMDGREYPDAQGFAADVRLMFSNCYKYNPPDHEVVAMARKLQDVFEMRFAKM

SMILES: CC(C)=CCC[C@H](C)[C@@H]1CC[C@@H](C)c2c1cc(C)c(O)c2O [Compound 4, 7,8-dihydroxyserrulat-14-ene]
- EC50 (HCT-8): 12.9 µM
- GI50 (HCT-8): 12.9 µM
- IC50 (HCT-8): 12.9 µM
- inhibition at 1 µM (CYP3A; read-out: % inhibition): 7 to 20%
- inhibition at 1 µM (CYP3A; [4]): 20%
- inhibition at 10 µM (CYP3A; [4]): 48%
- EC50 (KG-1 leukemia cell line; KG-1, Leukemia): 13.3 µM
- GI50 (KG-1 leukemia cell line; [5]): 13.1 µM
- IC50 (KG-1 leukemia cell line; KG-1, Leukemia): 13.3 µM
- reduction in the growth [1]: no significant reduction
- % Cell growth [1]: 37%

SMILES: CC(C)=CCC[C@@H]1COc2c(C)cc(O)c3c2[C@H]1CC[C@H]3C [Compound 3, 5,18-epoxy-8-hydroxyserrulat-14-ene]
- inhibition at 10 µM (BRD4(2) (h) bromodomain; 10 μM): 13%
- inhibition at 10 µM (BRD3(2) (h) bromodomain): 1%
- inhibition at 10 µM (CECR2 (h) bromodomain; 10 μM): 15%
- inhibition at 10 µM [2]: -2%
- inhibition at 10 µM [3]: 4%
- inhibition at 10 µM (EP300 (h) bromodomain; 10 μM): 40%
- inhibition at 10 µM (CBX2 (h) chromodomain): 3%
- remaining activity at 10 µM (Chemokine CCR2B): -10%
- remaining activity at 10 µM (Monoamine Oxidase MAO-B): 18%
- % Cell growth [1]: 91%

SMILES: CC(C)=CCC[C@@H]1C(O)Oc2c(C)cc(O)c3c2[C@H]1CC[C@H]3C (some centres unmarked) [Compound 2, 5,18-epoxyserrulat-14-en-8,18-diol]
- EC50 (HCT-8): 6.27 µM
- GI50 (HCT-8): 6.24 µM
- IC50 (HCT-8): 6.27 µM
- inhibition at 10 µM (BRD4(2) (h) bromodomain; 10 μM): 16%
- inhibition at 10 µM (BRD3(2) (h) bromodomain): 25%
- inhibition at 10 µM (CECR2 (h) bromodomain; 10 μM): 25%
- inhibition at 10 µM [2]: -2%
- inhibition at 10 µM [3]: 26%
- inhibition at 1 µM (CYP3A; read-out: % inhibition): 7 to 20%
- inhibition at 1 µM (CYP3A; [4]): 17%
- inhibition at 10 µM (CYP3A; [4]): 57%
- inhibition at 10 µM (EP300 (h) bromodomain; 10 μM): 37%
- inhibition at 10 µM (CBX2 (h) chromodomain): 6%
- remaining activity at 10 µM (Chemokine CCR2B): -23%
- EC50 (KG-1 leukemia cell line; KG-1, Leukemia): 11.3 µM
- GI50 (KG-1 leukemia cell line; [5]): 11.9 µM
- IC50 (KG-1 leukemia cell line; KG-1, Leukemia): 12 µM
- remaining activity at 10 µM (Monoamine Oxidase MAO-B): 39%
- % Cell growth [1]: 97%

SMILES: CC(C)=CCC[C@H](CO)[C@@H]1CC[C@@H](C)c2c1cc(C)c(O)c2O [Compound 1, 7,8,18-trihydroxyserrulat-14-ene]
- Relative cell count (%) Mean (HCT-8; HCT-8, 3.00E+00 microM): 1.9%
- Relative cell count (%) Mean (HCT-8; HCT-8, 3.00E+01 microM): 0.0%
- Relative cell count (%) Mean (HCT-8; HCT-8, 3.01E−01 microM): 94.9%
- Relative cell count (%) Mean (HCT-8; HCT-8, 3.01E−02 microM): 91.8%
- Relative cell count (%) Mean (HCT-8; HCT-8, 3.02E−03 microM): 104.1%
- Relative cell count (%) Mean (HCT-8; HCT-8, 9.49E+00 microM): 0.0%
- Relative cell count (%) Mean (HCT-8; HCT-8, 9.51E−01 microM): 72.6%
- Relative cell count (%) Mean (HCT-8; HCT-8, 9.52E−02 microM): 100.8%
- Relative cell count (%) Mean (HCT-8; HCT-8, 9.53E−03 microM): 91.0%
- Relative cell count (%) Mean (HCT-8; HCT-8, 9.55E−04 microM): 102.6%
- EC50 (HCT-8): 1.23 µM
- GI50 (HCT-8): 1.23 µM
- IC50 (HCT-8): 1.23 µM
- % Inhibition of Control Specific Binding (BRD4(2) (h) bromodomain; 10 μM): significant inhibitory activity
- inhibition at 10 µM (BRD4(2) (h) bromodomain; 10 μM): 76%
- IC50 (BRD4(2) (h) bromodomain; [6]): 5.6 µM
- inhibition at 10 µM (BRD3(2) (h) bromodomain): 35%
- % Inhibition of Control Specific Binding (CECR2 (h) bromodomain; 10 μM): significant inhibitory activity
- inhibition at 10 µM (CECR2 (h) bromodomain; 10 μM): 100%
- inhibition of binding, 1st (CECR2 (h) bromodomain; 3.0E−05M): 99.4
- inhibition of binding, 2nd (CECR2 (h) bromodomain; 3.0E−05M): 99.6
- inhibition of binding, Mean (CECR2 (h) bromodomain; 3.0E−05M): 99.5
- inhibition of binding, 1st (CECR2 (h) bromodomain; 3.0E−06M): 7.3
- inhibition of binding, 2nd (CECR2 (h) bromodomain; 3.0E−06M): 8.6
- inhibition of binding, Mean (CECR2 (h) bromodomain; 3.0E−06M): 7.9
- inhibition of binding, 1st (CECR2 (h) bromodomain; 3.0E−07M): −1.5
- inhibition of binding, 2nd (CECR2 (h) bromodomain; 3.0E−07M): 0.9
- inhibition of binding, Mean (CECR2 (h) bromodomain; 3.0E−07M): −0.3
- inhibition of binding, 1st (CECR2 (h) bromodomain; 3.0E−08M): −0.9
- inhibition of binding, 2nd (CECR2 (h) bromodomain; 3.0E−08M): −1.7
- inhibition of binding, Mean (CECR2 (h) bromodomain; 3.0E−08M): −1.3
- inhibition of binding, 1st (CECR2 (h) bromodomain; 3.0E−09M): 5.9
- inhibition of binding, 2nd (CECR2 (h) bromodomain; 3.0E−09M): 2.4
- inhibition of binding, Mean (CECR2 (h) bromodomain; 3.0E−09M): 4.2
- IC50 (CECR2 (h) bromodomain; [6]): 5 µM
- inhibition at 10 µM [2]: 13%
- inhibition at 10 µM [3]: 19%
- inhibition at 1 µM (CYP3A; read-out: % inhibition): 7 to 20%
- inhibition at 1 µM (CYP3A; [4]): 7%
- inhibition at 10 µM (CYP3A; [4]): 77%
- % Inhibition of Control Specific Binding (EP300 (h) bromodomain; 10 μM): significant inhibitory activity
- inhibition at 10 µM (EP300 (h) bromodomain; 10 μM): 89%
- IC50 (EP300 (h) bromodomain; [6]): 4.5 µM
- inhibition at 10 µM (CBX2 (h) chromodomain): 17%
- remaining activity at 10 µM (Chemokine CCR2B): 1%
- EC50 (KG-1 leukemia cell line; KG-1, Leukemia): 0.12 µM
- GI50 (KG-1 leukemia cell line; [5]): 0.11 µM
- IC50 (KG-1 leukemia cell line; KG-1, Leukemia): 0.12 µM
- GI50 (KG-1 leukemia cell line; read-out: GI50): 0.11 µM
- % Control Response (Monoamine Oxidase MAO-B; 10 μM, assay year 2015): potent inhibitor
- remaining activity at 10 µM (Monoamine Oxidase MAO-B): 75%
- % Cell growth [1]: −90%
